Target: T1, BoCCD4-3 (Bixa orellana, UniProt A0A140CWS5)
T1 construct: gene CCD4-3; complete ORF (1,785 bp amplicon, predicted 30-residue transit peptide kept) in pDEST17, arabinose-induced in lycopene-accumulating E. coli BL21 (pACCRTEIB); cells or crude cell-free extract, not purified
Assay: cleavage in lycopene-accumulating E. coli and in cell-free extract; HPLC, UHPLC-ESI-QTOF-MS/MS, FTIR
Format: biochemical
Conditions: 1 mM lycopene added 1:1 to extract, 22 °C, up to 5 min; product bixin aldehyde (m/z 349.2), 5,6/5',6' cleavage; crude extract

T1 sequence (A0A140CWS5 entry or part of it): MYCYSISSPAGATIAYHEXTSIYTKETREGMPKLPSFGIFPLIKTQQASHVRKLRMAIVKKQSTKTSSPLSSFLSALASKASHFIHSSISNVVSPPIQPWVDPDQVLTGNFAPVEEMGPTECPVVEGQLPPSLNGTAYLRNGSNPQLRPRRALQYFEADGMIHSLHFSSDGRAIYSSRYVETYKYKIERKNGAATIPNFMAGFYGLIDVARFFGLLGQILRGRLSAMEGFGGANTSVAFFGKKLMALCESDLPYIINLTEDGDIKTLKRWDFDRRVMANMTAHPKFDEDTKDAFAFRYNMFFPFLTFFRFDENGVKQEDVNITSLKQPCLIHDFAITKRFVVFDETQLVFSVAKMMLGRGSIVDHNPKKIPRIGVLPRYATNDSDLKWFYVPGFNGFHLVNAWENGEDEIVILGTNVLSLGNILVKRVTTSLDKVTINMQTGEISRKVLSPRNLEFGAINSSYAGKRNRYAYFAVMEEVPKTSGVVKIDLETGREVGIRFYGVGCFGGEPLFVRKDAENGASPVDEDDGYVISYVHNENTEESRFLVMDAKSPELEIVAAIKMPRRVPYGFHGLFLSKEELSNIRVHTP

CC(C)=CCC/C(C)=C/C=C/C(C)=C/C=C/C(C)=C/C=C/C=C(C)/C=C/C=C(C)/C=C/C=C(\C)CCC=C(C)C [lycopene]
cleavage in lycopene-accumulating E. coli and in cell-free extract; HPLC, UHPLC-: BoCCD4-3 is also able to cleave lycopene into bixin aldehyde, but at lower efficiency

From publication PMC6592262, “Isolation and functional characterization of two dioxygenases putatively involved in bixin biosynthesis in annatto (Bixa orellana L.)” (PeerJ, 2019)
